Reference: PubChem BioAssay AID1918935 (Molecular Pharmacology Branch, DTP, NCI, 2023)
Where “and” joins values, the source holds several entries; their conditions need not be identical. Identical values can stand only once.

Tested on: 324938-238-R-J1-PDC complex spheroid viability
Test: Anticancer human tumor 324938-238-R-J1-PDC patient-derived bladder carcinoma cell line growth inhibition
Conditions: for viability, T/C: stronger effect = lower value
How it was run: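 Multicellular complex spheroids of tumor cells with human endothelial cells (HUVEC) and mesenchymal stem cells; the LSD1 inhibitor iadademstat was combined with standard-of-care or investigational agents. Top concentration at or near clinical Cmax, half-log dilutions; final DMSO ≤0.25%.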

[1] = curve of first compound, second compound 0.1 µM
[2] = curve of first compound, second compound 0.316 µM
[3] = curve of first compound, second compound 1 µM
[4] = curve of first compound, second compound 3.16 µM
[5] = curve of first compound, second compound 10 µM
[6] = second compound 0.1 µM, first compound 0.0316 µM
[7] = second compound 0.1 µM, first compound 0.1 µM
[8] = second compound 0.1 µM, first compound 0.316 µM
[9] = second compound 0.1 µM, first compound 1 µM
[10] = second compound 0.1 µM, first compound 3.16 µM
[11] = second compound 0.1 µM, first compound 10 µM
[12] = second compound 0.316 µM, first compound 0.0316 µM
[13] = second compound 0.316 µM, first compound 0.1 µM
[14] = second compound 0.316 µM, first compound 0.316 µM
[15] = second compound 0.316 µM, first compound 1 µM
[16] = second compound 0.316 µM, first compound 3.16 µM
[17] = second compound 0.316 µM, first compound 10 µM
[18] = second compound 1 µM, first compound 0.0316 µM
[19] = second compound 1 µM, first compound 0.1 µM
[20] = second compound 1 µM, first compound 0.316 µM
[21] = second compound 1 µM, first compound 1 µM
[22] = second compound 1 µM, first compound 3.16 µM
[23] = second compound 1 µM, first compound 10 µM
[24] = second compound 3.16 µM, first compound 0.0316 µM
[25] = second compound 3.16 µM, first compound 0.1 µM
[26] = second compound 3.16 µM, first compound 0.316 µM
[27] = second compound 3.16 µM, first compound 1 µM
[28] = second compound 3.16 µM, first compound 3.16 µM
[29] = second compound 3.16 µM, first compound 10 µM
[30] = second compound 10 µM, first compound 0.0316 µM
[31] = second compound 10 µM, first compound 0.1 µM
[32] = second compound 10 µM, first compound 0.316 µM
[33] = second compound 10 µM, first compound 1 µM
[34] = second compound 10 µM, first compound 3.16 µM
[35] = second compound 10 µM, first compound 10 µM
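Further: spheroids also contain HUVEC and human MSCs and agents combined with iadademstat; spheroids exposed to agents for 7 days before readout.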

Compound `CC(C)c1c(-c2ccccc2)nc2c(C#N)c[nH]n2c1=O` + NC1CC1c1ccc(-c2cccc(O)c2)cc1 has an IC50 [1] greater than 10 µM, an IC50 [2] greater than 10 µM and an IC50 [3] greater than 10 µM. For the same compound, the IC50 [4] was greater than 10 µM, the IC50 [5] was greater than 10 µM and the viability, T/C [6] was 104%. The viability, T/C [7] was 98.2%, the viability, T/C [8] was 101% and the viability, T/C [9] was 94%. The viability, T/C [10] was 90.8%, the viability, T/C [11] was 72.6% and the viability, T/C [12] was 82.9%. For the same compound, the viability, T/C [13] was 84.9%, the viability, T/C [14] was 87.2% and the viability, T/C [15] was 82.6%. For the same compound, the viability, T/C [16] was 88.7%, the viability, T/C [17] was 79.1% and the viability, T/C [18] was 85.7%. For the same compound, the viability, T/C [19] was 99.3%, the viability, T/C [20] was 85.4% and the viability, T/C [21] was 89.1%. The viability, T/C [22] was 81.7%, the viability, T/C [23] was 81% and the viability, T/C [24] was 86.7%. For the same compound, the viability, T/C [25] was 92.1%, the viability, T/C [26] was 86.5% and the viability, T/C [27] was 89.7%. For the same compound, the viability, T/C [28] was 82.7%, the viability, T/C [29] was 77.3% and the viability, T/C [30] was 89.5%. For the same compound, the viability, T/C [31] was 85.4%, the viability, T/C [32] was 86.9% and the viability, T/C [33] was 88.9%. The viability, T/C [34] was 89.3% and the viability, T/C [35] was 80.8%.
`O=C(c1cc(Cc2n[nH]c(=O)c3ccccc23)ccc1F)N1CCN(C(=O)C2CC2)CC1` was tested, and the viability, T/C (compound 0.0316 µM) was 100% and 104%, the viability, T/C (compound 0.1 µM) was 100% and 104% and the viability, T/C (compound 0.316 µM) was 107% and 96.3%. For the same compound, the viability, T/C (compound 1 µM) was 87.4% and 80.7%, the viability, T/C (compound 3.16 µM) was 64.5% and 48.9% and the viability, T/C (compound 10 µM) was 40.4% and 31.9%. The IC50 (curve of compound) was 6.26 µM and 3.09 µM.
For `Nc1ccn(C2OC(CO)C(O)C2(F)F)c(=O)n1` (stereo unspecified), the viability, T/C (compound 0.000949 µM) was 11.4% and 15.4%, the viability, T/C (compound 0.003 µM) was 8.21% and 9.09% and the viability, T/C (compound 0.00949 µM) was 7.58% and 8.65%. For the same compound, the viability, T/C (compound 0.03 µM) was 6.97% and 8.11%, the viability, T/C (compound 0.0949 µM) was 5.95% and 6.14% and the viability, T/C (compound 0.3 µM) was 5.04% and 6.97%. It also gave an IC50 (curve of compound) of less than 0.000949 µM.
In the case of `CC(C)CC(NC(=O)C(Cc1ccccc1)NC(=O)c1cnccn1)B(O)O` (stereo unspecified), the viability, T/C (compound 0.000316 µM) is reported as 95.8% and 79.7%, the viability, T/C (compound 0.001 µM) is reported as 21.5% and 7.74% and the viability, T/C (compound 0.00316 µM) is reported as 0.55% and 0.19%. For the same compound, the viability, T/C (compound 0.01 µM) was 0.21% and 1.23%, the viability, T/C (compound 0.0316 µM) was 0.46% and 0.17% and the viability, T/C (compound 0.1 µM) was 0.24% and 0.28%. For the same compound, the IC50 (curve of compound) was 0.000643 µM and 0.000508 µM.
Compound `CC1(C)CCC(CN2CCN(c3ccc(C(=O)NS(=O)(=O)c4ccc(NCC5CCOCC5)c([N+](=O)[O-])c4)c(Oc4cnc5[nH]ccc5c4)c3)CC2)=C(c2ccc(Cl)cc2)C1` + NC1CCC(NC2CC2c2ccccc2)CC1 has an IC50 [1] of 5.12 µM, an IC50 [2] of 5.64 µM and an IC50 [3] of 4.25 µM. The IC50 [4] was 4.62 µM, the IC50 [5] was 4.48 µM and the viability, T/C [6] was 75.7%. For the same compound, the viability, T/C [7] was 71.4%, the viability, T/C [8] was 72.2% and the viability, T/C [9] was 71%. It also gave a viability, T/C [10] of 65.2%, a viability, T/C [11] of 29.1% and a viability, T/C [12] of 74.2%. For the same compound, the viability, T/C [13] was 75.5%, the viability, T/C [14] was 79.7% and the viability, T/C [15] was 71.2%. It also gave a viability, T/C [16] of 69.7%, a viability, T/C [17] of 30.9% and a viability, T/C [18] of 75.2%. The viability, T/C [19] was 78%, the viability, T/C [20] was 68.7% and the viability, T/C [21] was 66.1%. The viability, T/C [22] was 60.6%, the viability, T/C [23] was 26.7% and the viability, T/C [24] was 68.3%. For the same compound, the viability, T/C [25] was 68%, the viability, T/C [26] was 68.8% and the viability, T/C [27] was 70.8%. The viability, T/C [28] was 61.7%, the viability, T/C [29] was 24.8% and the viability, T/C [30] was 71.7%. For the same compound, the viability, T/C [31] was 64.3%, the viability, T/C [32] was 64.7% and the viability, T/C [33] was 70.4%. For the same compound, the viability, T/C [34] was 59.5% and the viability, T/C [35] was 26%.
With `Nc1ccn(C2OC(CO)C(O)C2(F)F)c(=O)n1` (stereo unspecified) + NC1CCC(NC2CC2c2ccccc2)CC1 the IC50 [1] was less than 0.000949 µM, the IC50 [2] was less than 0.000949 µM and the IC50 [3] was less than 0.000949 µM. It also gave an IC50 [4] of less than 0.000949 µM, an IC50 [5] of less than 0.000949 µM and a viability, T/C (second compound 0.1 µM, first compound 0.000949 µM) of 7.42%. It also gave a viability, T/C (second compound 0.1 µM, first compound 0.003 µM) of 7.71%, a viability, T/C (second compound 0.1 µM, first compound 0.00949 µM) of 7.38% and a viability, T/C (second compound 0.1 µM, first compound 0.03 µM) of 6.53%. The viability, T/C (second compound 0.1 µM, first compound 0.0949 µM) was 5.05%, the viability, T/C (second compound 0.1 µM, first compound 0.3 µM) was 5.23% and the viability, T/C (second compound 0.316 µM, first compound 0.000949 µM) was 10.3%. The viability, T/C (second compound 0.316 µM, first compound 0.003 µM) was 7.95%, the viability, T/C (second compound 0.316 µM, first compound 0.00949 µM) was 6.91% and the viability, T/C (second compound 0.316 µM, first compound 0.03 µM) was 7.37%. The viability, T/C (second compound 0.316 µM, first compound 0.0949 µM) was 5.53%, the viability, T/C (second compound 0.316 µM, first compound 0.3 µM) was 5.05% and the viability, T/C (second compound 1 µM, first compound 0.000949 µM) was 9.63%. For the same compound, the viability, T/C (second compound 1 µM, first compound 0.003 µM) was 9.08%, the viability, T/C (second compound 1 µM, first compound 0.00949 µM) was 8.5% and the viability, T/C (second compound 1 µM, first compound 0.03 µM) was 7.08%. It also gave a viability, T/C (second compound 1 µM, first compound 0.0949 µM) of 5.53%, a viability, T/C (second compound 1 µM, first compound 0.3 µM) of 5.33% and a viability, T/C (second compound 3.16 µM, first compound 0.000949 µM) of 10.8%. For the same compound, the viability, T/C (second compound 3.16 µM, first compound 0.003 µM) was 8.82%, the viability, T/C (second compound 3.16 µM, first compound 0.00949 µM) was 9.28% and the viability, T/C (second compound 3.16 µM, first compound 0.03 µM) was 7.53%. It also gave a viability, T/C (second compound 3.16 µM, first compound 0.0949 µM) of 5.27%, a viability, T/C (second compound 3.16 µM, first compound 0.3 µM) of 5.32% and a viability, T/C (second compound 10 µM, first compound 0.000949 µM) of 11.8%. The viability, T/C (second compound 10 µM, first compound 0.003 µM) was 9.1%, the viability, T/C (second compound 10 µM, first compound 0.00949 µM) was 9.36% and the viability, T/C (second compound 10 µM, first compound 0.03 µM) was 8.14%. The viability, T/C (second compound 10 µM, first compound 0.0949 µM) was 4.93% and the viability, T/C (second compound 10 µM, first compound 0.3 µM) was 5.8%.
